Results as given in patent publication US20260276625A1, “SCREENING METHOD FOR COMPOUND INDUCING AUTOPHAGY” (TOHOKU UNIVERSITY, priority 2023, published 2026).

Assays:
Type in all cases: cell-based
[1] = biological target: T1, RFP-DDX5 (Homo sapiens, UniProt P17844+P62942); experiment: Droplet formation, live cell imaging of HeLa cells expressing GFP-FKBP12 and RFP-DDX5, 1,6-hexanediol; conditions: 10 μM, 13 hours; disappeared after addition of 5% 1,6-hexanediol
T1 construct: expressed in transfected cells; host or cells: HeLa
T1 sequence (P17844 whole entry): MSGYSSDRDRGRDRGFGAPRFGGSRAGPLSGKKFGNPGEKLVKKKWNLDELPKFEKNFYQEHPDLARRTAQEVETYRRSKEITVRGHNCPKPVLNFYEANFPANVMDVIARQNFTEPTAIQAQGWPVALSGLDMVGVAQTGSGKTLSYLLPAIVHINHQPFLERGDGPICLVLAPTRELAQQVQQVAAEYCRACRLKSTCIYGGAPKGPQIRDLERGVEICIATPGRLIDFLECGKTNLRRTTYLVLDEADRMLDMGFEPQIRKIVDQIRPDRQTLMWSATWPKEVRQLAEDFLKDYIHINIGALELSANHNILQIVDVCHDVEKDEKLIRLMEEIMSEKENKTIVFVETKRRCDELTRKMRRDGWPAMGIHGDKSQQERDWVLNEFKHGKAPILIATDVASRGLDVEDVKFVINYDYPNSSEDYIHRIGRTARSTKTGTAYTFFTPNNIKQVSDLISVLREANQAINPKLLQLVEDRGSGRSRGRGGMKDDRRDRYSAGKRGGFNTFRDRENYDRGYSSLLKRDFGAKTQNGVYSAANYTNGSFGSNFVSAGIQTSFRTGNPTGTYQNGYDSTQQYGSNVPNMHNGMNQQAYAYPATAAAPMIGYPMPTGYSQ
T1 sequence (P62942 whole entry): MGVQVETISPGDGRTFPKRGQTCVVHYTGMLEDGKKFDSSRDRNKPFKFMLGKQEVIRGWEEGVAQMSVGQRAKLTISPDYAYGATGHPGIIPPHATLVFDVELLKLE
Experimental: (§1) HeLa cells transiently expressing GFP-FKBP12 and RFP-DDX5, or GFP-FKBP12 and RFP-p62 were treated with AUTAC2-2G added in such an amount as to achieve a concentration of 10 μM for 13 hours. The treated cells were subjected to live cell imaging by a fluorescence microscope, and fluorescence derived from GFP and RFP was continuously observed. On the way, 5% 1,6-hexanediol was added 5 minutes after the start of observation to observe whether a dot-like structure in the field of view disappeared.
(§2) 1,6-Hexanediol is known to have an action of eliminating droplets, and this makes it possible to confirm whether the dot-like structure in the field of view of the microscope is a droplet.

[2] = biological target: T2, RFP-p62 (Homo sapiens, UniProt P62942+Q13501); experiment: Droplet formation, live cell imaging of HeLa cells expressing GFP-FKBP12 and RFP-p62, 1,6-hexanediol; conditions: 10 μM, 13 hours; disappeared after addition of 5% 1,6-hexanediol
T2 construct: expressed in transfected cells; host or cells: HeLa
T2 sequence (Q13501 whole entry): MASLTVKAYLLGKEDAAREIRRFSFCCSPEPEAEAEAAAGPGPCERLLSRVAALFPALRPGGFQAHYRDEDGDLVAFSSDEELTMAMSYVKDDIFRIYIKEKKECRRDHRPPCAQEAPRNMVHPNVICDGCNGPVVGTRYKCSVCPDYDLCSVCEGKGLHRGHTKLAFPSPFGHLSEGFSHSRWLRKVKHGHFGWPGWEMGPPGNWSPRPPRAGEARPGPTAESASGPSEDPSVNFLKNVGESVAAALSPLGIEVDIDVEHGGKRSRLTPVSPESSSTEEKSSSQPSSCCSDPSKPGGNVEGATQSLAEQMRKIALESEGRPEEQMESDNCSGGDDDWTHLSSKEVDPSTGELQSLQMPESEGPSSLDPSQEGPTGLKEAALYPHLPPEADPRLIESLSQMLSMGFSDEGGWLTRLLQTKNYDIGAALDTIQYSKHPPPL
T2 sequence (P62942 whole entry): as the sequence (P62942 whole entry) above
Experimental: as §1, §2

[3] = biological target: T3, DDX5 and p62 (Homo sapiens, UniProt P17844); experiment: Droplet formation of DDX5 and p62, immunostaining of HeLa cells expressing GFP-FKBP^F36V; conditions: 1 μM, 12 hours, fixed cells, anti-DDX5 and anti-p62 antibody
T3 construct: endogenous in cells; host or cells: HeLa (transiently expressing GFP-FKBP^F36V)
T3 sequence (P17844 whole entry): as the sequence (P17844 whole entry) above
T3 sequence (Q13501 2-440 partner): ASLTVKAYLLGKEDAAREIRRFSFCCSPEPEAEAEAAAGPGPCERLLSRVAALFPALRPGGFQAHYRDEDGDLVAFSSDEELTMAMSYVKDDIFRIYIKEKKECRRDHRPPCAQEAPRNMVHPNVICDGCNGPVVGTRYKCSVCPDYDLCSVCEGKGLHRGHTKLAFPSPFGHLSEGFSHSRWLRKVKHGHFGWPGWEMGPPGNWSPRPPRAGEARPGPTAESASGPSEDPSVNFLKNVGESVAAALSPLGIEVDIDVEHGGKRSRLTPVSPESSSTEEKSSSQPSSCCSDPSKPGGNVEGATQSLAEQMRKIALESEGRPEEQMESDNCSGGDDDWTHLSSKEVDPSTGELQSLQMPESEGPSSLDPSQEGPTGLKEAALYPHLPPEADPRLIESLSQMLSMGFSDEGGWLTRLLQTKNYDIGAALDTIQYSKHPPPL
T3 sequence (P62942 2-108 F37V partner): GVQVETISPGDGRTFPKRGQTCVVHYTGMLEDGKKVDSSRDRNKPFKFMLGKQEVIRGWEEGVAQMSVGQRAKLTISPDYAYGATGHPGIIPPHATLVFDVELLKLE
Description: Such a “droplet” can be confirmed by labeling a DEAD-box RNA helicase and/or p62 with a fluorescent label or the like, introducing a test compound into a system in which they exist, preferably treating cells expressing at least one of these with the test compound, and observing the presence of a substance visualized by the label with a fluorescence microscope or the like. In addition, for the purpose of confirming the properties of the liquid in more detail, it is preferable to combine this method with the fluorescence recovery after photobleaching (FRAP).
HeLa cells transiently expressing GFP tagged with a mutant FKBP (GFP-FKBP^F36V) were treated with 1 μM SLF′-AUTAC for 12 hours. The treated cells were fixed with 4% paraformaldehyde, then permeabilized with 0.1% TritonX-100/PBS, blocked with 1% BSA/PBS, immersed in PBS containing 1% rabbit-derived anti-DDX5 antibody and 1% mouse-derived anti-p62 antibody, and incubated at 4° C. overnight. Subsequently, the cells were immersed in PBS containing 1% AlexaFluor555-labeled anti-rabbit IgG and 1% AlexaFluor555-labeled anti-mouse IgG, and incubated at rccm temperature for 1 hour.

[4] = biological target: T4, GFP-αSyn-FKBP^F36V (Homo sapiens, UniProt P62942, F37V); experiment: Mutant FKBP-tagged synuclein degradation test (GFP fluorescence microscopy, HeLa cells); conditions: 48 hours, compared with untreated group (DMSO)
T4 construct: expressed in transfected cells; host or cells: HeLa
T4 sequence (P62942 whole entry F37V): as the sequence (P62942 whole entry) above, with F37V counted along it
Experimental: HeLa cells transiently expressing GFP-α-synuclein tagged with a mutant FKBP (GFP-αSyn-FKBP^F36V) were treated with SLF′-AUTAC for 48 hours. In each of the wells of non-treated cells and treated cells, GFP fluorescence was photographed with a fluorescence microscope. Degradation of GFP-αSyn-FKBP^F36V was evaluated from the GFP fluorescence intensity.

| Compound | dot-like structure (droplet) containing GFP-FKBP12 and RFP-DDX5 [1] | dot-like structure (droplet) containing GFP-FKBP12 and RFP-p62 [2] | formation of a droplet containing DDX5 and p62 [3] | degradation of GFP-αSyn-FKBP^F36V (GFP fluorescence intensity) ([4]; 1 μM) | degradation of GFP-αSyn-FKBP^F36V (GFP fluorescence intensity) ([4]; 10 μM) |
| --- | --- | --- | --- | --- | --- |
| CCC(C)(C)C(=O)C(=O)N1CCCC[C@H]1C(=O)O[C@H](CCc1ccc(OC)c(OC)c1)c1cccc(NC(=O)CCC(=O)NCCCOCCOCCOCCCn2cc(-c3nc4c(=O)[nH]c(N)nc4n3Cc3ccc(F)cc3)cn2)c1 [AUTAC2-2G] | a dot-like structure containing GFP-FKBP12 and RFP-DDX5 | a dot-like structure containing GFP-FKBP12 and RFP-p62 were observed | – | – | – |
| CC[C@H](C(=O)N1CCCC[C@H]1C(=O)O[C@H](CCc1ccc(OC)c(OC)c1)c1cccc(OCC(=O)NCCCOCCOCCOCCCn2cc(-c3nc4c(=O)[nH]c(N)nc4n3Cc3ccc(F)cc3)cn2)c1)c1cc(OC)c(OC)c(OC)c1 [SLF′-AUTAC] | – | – | DDX5 and p62 formed droplets in the cells | the degradation of GFP-αSyn-FKBP^F36V was observed | the degradation of GFP-αSyn-FKBP^F36V was observed |
